PubChem BioAssay (NCI)
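Following 48 hours of exposure in 96-well plates, responses at five concentrations were used to interpolate endpoints linearly. TGI marks complete inhibition of growth.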

Columns and labels:
Experiment in all cases: NCI-60 cell line screen, 48 h
[1] = tested on: HCT-15 colon
[2] = tested on: SNB-75 CNS
[3] = tested on: SF-268 CNS
[4] = tested on: SN12C renal
[5] = tested on: NCI-H226 lung
[6] = tested on: KM12 colon
[7] = tested on: LOX IMVI melanoma
[8] = tested on: NCI-H522 lung
[9] = tested on: UACC-62 melanoma
[10] = tested on: BT-549 breast
[11] = tested on: PC-3 prostate
[12] = tested on: OVCAR-4 ovarian
[13] = tested on: HCC-2998 colon
[14] = tested on: SK-MEL-5 melanoma
[15] = tested on: NCI-H460 lung
[16] = tested on: HOP-62 NSCLC
[17] = tested on: TK-10 renal
[18] = tested on: OVCAR-3 ovarian
[19] = tested on: OVCAR-5 ovarian
[20] = tested on: SF-295 CNS
[21] = tested on: HCT-116 colon
[22] = tested on: UACC-257 melanoma
[23] = tested on: M14 melanoma
[24] = tested on: ACHN renal
[25] = tested on: SNB-19 CNS
[26] = tested on: HS 578T breast
[27] = tested on: SK-OV-3 ovarian
[28] = tested on: MCF7 breast
[29] = tested on: CCRF-CEM leukemia
[30] = tested on: DU-145 prostate
[31] = tested on: COLO 205 colon
[32] = tested on: HT29 colon
[33] = tested on: SK-MEL-28 melanoma
[34] = tested on: A549 NSCLC
[35] = tested on: SR leukemia
[36] = tested on: U251 CNS
[37] = tested on: HL-60(TB) leukemia
[38] = tested on: RXF 393 renal
[39] = tested on: T-47D breast
[40] = tested on: OVCAR-8 ovarian
[41] = tested on: MDA-N
[42] = tested on: MOLT-4 leukemia
[43] = tested on: HOP-92 NSCLC
[44] = tested on: SK-MEL-2 melanoma
[45] = tested on: 786-0 renal
[46] = tested on: SF-539 CNS
[47] = tested on: IGROV1 ovarian
[48] = tested on: UO-31 renal
[49] = tested on: MALME-3M melanoma
[50] = tested on: NCI-H23 lung
[51] = tested on: K-562 leukemia
[52] = tested on: CAKI-1 renal
[53] = tested on: NCI/ADR-RES ovarian
[54] = tested on: SW-620 colon
[55] = tested on: MDA-MB-435
[56] = tested on: A498 renal
[57] = tested on: MDA-MB-231 breast
[58] = tested on: RPMI-8226 leukemia
[59] = tested on: EKVX NSCLC

Measured: TGI

COc1ccc(NC2C(=O)C3(C)CCC2C3(C)C)cc1 (stereo unspecified)
> 100 µM: [1] | [2] | [3] | [4] | [5] | [6] | [7] | [8] | [9] | [10] | [11] | [12] | [13] | [15] | [16] | [17] | [18] | [19] | [20] | [21] | [22] | [23] | [24] | [25] | [26] | [27] | [28] | [29] | [30] | [31] | [32] | [33] | [34] | [35] | [36] | [37] | [38] | [39] | [40] | [41] | [42] | [43] | [44] | [45] | [46] | [47] | [48] | [49] | [50] | [51] | [52] | [53] | [54] | [55] | [56] | [57] | [58] | [59]
99.8 µM: [14]

Cn1c(=O)c2[nH]c(CCCCc3nc4ccccc4[nH]3)nc2n(C)c1=O
95.8 µM: [43]
> 100 µM: [1] | [2] | [3] | [4] | [5] | [6] | [7] | [8] | [9] | [10] | [11] | [12] | [13] | [14] | [15] | [16] | [17] | [18] | [19] | [20] | [21] | [22] | [23] | [24] | [25] | [26] | [27] | [28] | [29] | [30] | [31] | [32] | [33] | [34] | [35] | [36] | [37] | [38] | [39] | [40] | [41] | [42] | [44] | [45] | [46] | [47] | [48] | [49] | [50] | [51] | [52] | [53] | [54] | [55] | [56] | [57] | [58] | [59]

C=CCN1C(=O)CNC1=S
77.6 µM: [29]
> 100 µM: [1] | [2] | [3] | [4] | [5] | [6] | [7] | [8] | [9] | [10] | [11] | [12] | [13] | [14] | [15] | [16] | [17] | [18] | [19] | [20] | [21] | [22] | [23] | [24] | [25] | [26] | [27] | [28] | [30] | [31] | [32] | [33] | [34] | [35] | [36] | [38] | [39] | [40] | [41] | [42] | [43] | [44] | [45] | [46] | [47] | [48] | [49] | [50] | [51] | [52] | [53] | [54] | [55] | [56] | [57] | [58] | [59]
78.9 µM: [37]

CCCCCCCCCCCC(=O)N(CCCCCCCCCCC(=O)O)CC(O)C(O)C(OC1OC(CO)C(O)C(O)C1O)C(O)CO (stereo unspecified)
> 100 µM: [1] | [2] | [3] | [4] | [5] | [6] | [7] | [8] | [9] | [10] | [11] | [12] | [13] | [14] | [15] | [16] | [17] | [18] | [19] | [20] | [21] | [22] | [23] | [24] | [25] | [26] | [27] | [28] | [29] | [30] | [31] | [32] | [33] | [34] | [35] | [36] | [37] | [38] | [39] | [40] | [41] | [42] | [43] | [44] | [45] | [46] | [47] | [48] | [49] | [50] | [51] | [52] | [53] | [54] | [55] | [56] | [57] | [58] | [59]
